The text below walks through data of patent publication US20240368221A1, “IMPATIENS BALSAMINA-DERIVED ANTI-BACTERIAL PEPTIDE AND ANTI-BACTERIAL COMPOSITION CONTAINING SAME” (V&CO CO., LTD., priority 2021, published 2024).

In brackets after ≈: the same amount, converted by molar mass. Like-named read-outs stand apart in the source and are kept apart here. Where a SMILES comes first, the peptide text is derived from it.

The viability is a read-out of living cells in per cent, often relative to untreated cells. One may read the MIC as the lowest concentration that inhibits growth of the organism. Lower therefore signals a more susceptible organism.

Data set [1] deals with sheep red blood cells (sRBCs). Kind of data set: Hemolytic activity. Conditions: 5% sRBC, 30 minutes, room temperature. Format: cell-based. As to the method:
Specifically, hemolytic activity was analyzed using sheep red blood cells (sRBCs). In addition, as comparative groups, Ib-AMP4 and melittin were used. Defibrinated sheep blood (MB cells) was centrifuged (4,000×g, 10 min, 4° C.), washed with PBS three times, and suspended in PBS, thereby preparing an sRBC solution (10% sRBC). 5% sRBC and each peptide were mixed to have a final concentration of 1.25 to 160 μg/mL, allowed to react at room temperature for 30 minutes, and centrifuged to collect a supernatant. The absorbance (A414) of hemoglobin eluted from the red blood cells in the collected supernatant was measured at 414 nm. 0.1% Triton X−100 was used as a positive control, PBS was used as a negative control, and hemolytic activity (% Hemolysis) was calculated based on the following equation: % Hemolysis=[(A414 in peptide solution−A414 in PBS)/(A414 in 0.1% Triton X−100−A414 in PBS)]×100.

Data set [2] in a line: Cytotoxicity, WST-1 cell viability. Format: cell-based, murine. Particulars: mouse, L929 cells (murine fibroblast cell line), L929 cells, 24 hours, read-out: Relative cell viability (%). The protocol: (§1) Specifically, cytotoxicity was evaluated using a skin cell line, L929 cells (murine fibroblast cell line). In addition, as comparative groups, Ib-AMP4 and the bee venom-derived AMP, melittin, known to be highly cytotoxic, were used. The L929 cells were cultured in RPMI 1640 medium (Gibco), which was supplemented with 10% FBS (Sigma), antibiotic-antimycotic cocktail, penicillin G (100 IU/mL), streptomycin (100 μg/mL), and amphotericin B (250 ng/ml; Gibco), at 37° C. in 5% CO2. The cells were seeded in a 96-well plate at 1×10^4 cell/well, incubated for 18 hours, treated with each peptide at 1.25 to 160 µg/mL, and then incubated for 24 hours. 10 μL of WST-1 reagent was added to 100 μL of the medium and allowed to react at 37° C. for 30 minutes, and then absorbance (A450) was measured at 450 nm using a microplate reader. Instead of the peptides, 0.1% Triton X-100 and PBS were used as positive and negative controls, respectively, and cell viability was calculated based on the following equation: % Cell viability=[(A450 in peptide solution−A450 in PBS)/(A450 in 0.1% Triton X−100-A450 in PBS)]×100. The analysis results were expressed as mean±S.D of three repeated experiments.
A general note: Tetrazolium dyes change colour on reduction, which living cells bring about.

For data set [3], the system named is L929 cells (murine fibroblast cell line). Kind of data set: Cytotoxicity, WST-1 cell viability. The class given is cell-based. Particulars: L929 cells, peptide 5.0 μg/mL, 24 hours. As to the method:
as §1

Data set [4] deals with Aspergillus niger KCTC 6317. Format: cell-based. The protocol: (§2) To examine the antimicrobial and antifungal activity of the six types of peptide derivatives prepared in Example 1, antimicrobial and antifungal activity was analyzed using three types of bacterial strains and two types of fungal strains.
(§3) Specifically, to analyze antimicrobial and antifungal activity, a minimal inhibitory concentration (MIC) was measured. The three types of bacterial strains included Escherichia coli KCCM 41290, Staphylococcus aureus KCTC 1621, and Cutibacterium acnes KCTC 3314, and the two types of fungal strains included Candida albicans KCTC 17712, and Aspergillus niger KCTC 6317. The culture of Escherichia coli and Staphylococcus aureus was performed in Luria-Bertani (LB) medium (BD Difco), and the culture of Cutibacterium acnes was performed in reinforced clostridial medium (RCM, BD Difco). The culture of Candida albicans and Aspergillus niger was performed in potato dextrose (PD) medium (BD Difco). The pre-cultured microorganisms or spores were diluted in a medium to 5×10^3 CFU/mL, and each of the six types of peptide derivatives prepared in Example 1 was added at a predetermined concentration. Afterward, a bacterial strain was cultured at 37° C., a fungal strain was cultured at 25° C. for 18 to 24 hours, and optical densities (OD600) were measured using a microplate reader. Fluorescence values (Ex560 and Em600), instead of optical densities, were measured after adding a resazurin reagent to the Aspergillus niger medium to have a concentration of 100 μM. As a control, Ib-AMP4 was used, and the analysis results were expressed as the average of three repeated experiments.

In data set [5] the test system is Cutibacterium acnes KCTC 3314. Format: cell-based. The protocol: as §2, §3
Data set [6] has as its system Candida albicans KCTC 17712. Format: cell-based. The protocol:
as §2, §3

Data set [7] relates to Staphylococcus aureus KCTC 1621. Format: cell-based. As to the method:
as §2, §3

The subject of data set [8] is Escherichia coli KCCM 41290. Format: cell-based. As to the method: as §2, §3
[9] abbreviates: Aspergillus niger, PD medium, 25° C., 18 to 24 hours, resazurin fluorescence.
[10] abbreviates: Cutibacterium acnes, RCM, 37° C., 18 to 24 hours, OD600.
Setting [11] is: Candida albicans, PD medium, 25° C., 18 to 24 hours, OD600.
Setting [12] is: Staphylococcus aureus, LB medium, 37° C., 18 to 24 hours, OD600.
[13] abbreviates: Escherichia coli, LB medium, 37° C., 18 to 24 hours, OD600.

On to `CC[C@H](C)[C@H](NC(=O)CN)C(=O)NCC(=O)N[C@@H](C)C(=O)N[C@H](C(=O)N[C@@H](CC(C)C)C(=O)N[C@@H](CCCCN)C(=O)N[C@H](C(=O)N[C@@H](CC(C)C)C(=O)N[C@H](C(=O)N[C@H](C(=O)NCC(=O)N[C@@H](CC(C)C)C(=O)N1CCC[C@H]1C(=O)N[C@@H](C)C(=O)N[C@@H](CC(C)C)C(=O)N[C@H](C(=O)N[C@@H](CO)C(=O)N[C@@H](Cc1c[nH]c2ccccc12)C(=O)N[C@H](C(=O)N[C@@H](CCCCN)C(=O)N[C@@H](CCCNC(=N)N)C(=O)N[C@@H](CCCCN)C(=O)N[C@@H](CCCNC(=N)N)C(=O)N[C@@H](CCC(N)=O)C(=O)N[C@@H](CCC(N)=O)C(N)=O)[C@@H](C)CC)[C@@H](C)CC)[C@@H](C)O)[C@@H](C)O)C(C)C)C(C)C` [Melittin], for which the “Hemolytic Activity (%)” value came out at 0.98% in data set [1] (peptide 1.25 μg/mL); 3.40% in data set [1] (peptide 2.5 μg/mL); 14.0% in data set [1] (peptide 5.0 μg/mL); 25.02% in data set [1] (peptide 10 μg/mL); 96.10% in data set [1] (peptide 20 μg/mL); 99.36% in data set [1] (peptide 40 μg/mL). The viability at 24 h, 1.25 µg/mL in data set [2] (peptide 1.25 μg/mL) is 97.4%. Also, the viability at 24 h, 2.5 µg/mL in data set [2] (peptide 2.5 μg/mL) stood at 51.1%. Besides, in data set [2] (peptide 5.0 μg/mL), the viability at 24 h, 5 µg/mL is 2.1%. Also, in data set [2] (peptide 10 μg/mL), the viability at 24 h, 10 µg/mL amounted to 0.2%. In data set [2] (peptide 20 μg/mL), the viability at 24 h, 20 µg/mL is 0.8%. Also, the viability at 24 h, 40 µg/mL in data set [2] (peptide 40 μg/mL) is 0.3%. Further, the viability at 24 h, 80 µg/mL in data set [2] (peptide 80 μg/mL) is 0.5%. Also, the viability at 24 h, 160 µg/mL in data set [2] (peptide 160 μg/mL) was determined as 0.6%. Further, the “Relative cell viability (%)” value in data set [3] is recorded as 2.1%.

As for `N=C(N)NCCC[C@H](NC(=O)[C@H](CCCNC(=N)N)NC(=O)[C@H](CS)NC(=O)[C@H](Cc1ccc(O)cc1)NC(=O)[C@H](CCCNC(=N)N)NC(=O)[C@H](CCCNC(=N)N)NC(=O)CNC(=O)[C@@H]1CCCN1C(=O)CN)C(N)=O` [VESCA1] (H-GPGRRYCRR-NH2; N-terminus assumed), the minimal inhibitory concentration (MIC) in data set [4] (setting [9]) was 60 µg/mL (≈ 53.6 µM); in data set [5] (setting [10]), above 100 µg/mL; in data set [6] (setting [11]), 40 µg/mL (≈ 35.7 µM); in data set [7] (setting [12]), above 100 µg/mL; in data set [8] (setting [13]), above 100 µg/mL.

As for `C[C@H](NC(=O)[C@H](Cc1ccc(O)cc1)NC(=O)[C@H](CCCNC(=N)N)NC(=O)[C@H](CCCNC(=N)N)NC(=O)CNC(=O)[C@@H]1CCCN1C(=O)CN)C(=O)N[C@@H](CCCNC(=N)N)C(=O)N[C@@H](CCCNC(=N)N)C(N)=O` [VESCA2] (H-GPGRRYARR-NH2; N-terminus assumed), the MIC in data set [4] (setting [9]) was 80 µg/mL (≈ 73.6 µM); in data set [5] (setting [10]), above 100 µg/mL; in data set [6] (setting [11]), 60 µg/mL (≈ 55.2 µM); in data set [7] (setting [12]), above 100 µg/mL; in data set [8] (setting [13]), above 100 µg/mL.

For the molecule `N=C(N)NCCC[C@H](NC(=O)CNC(=O)[C@H](Cc1c[nH]c2ccccc12)NC(=O)[C@H](CCC(=O)O)NC(=O)[C@@H](N)CC(=O)O)C(=O)N[C@@H](CCCNC(=N)N)C(=O)N[C@@H](CS)C(=O)N[C@@H](CS)C(=O)NCC(N)=O` [VESCA-NH2] (H-DEWGRRCCG-NH2; N-terminus assumed), the MIC in data set [4] (KCTC 6317), in data set [5] (KCTC 3314), in data set [6] (KCTC 17712), in data set [7] (KCTC 1621) and in data set [8] (KCCM 41290) was above 100 µg/mL each time.

Consider `N=C(N)NCCC[C@H](NC(=O)[C@H](CCCNC(=N)N)NC(=O)[C@H](CCCCN)NC(=O)[C@H](Cc1c[nH]c2ccccc12)NC(=O)[C@H](CCC(=O)O)NC(=O)[C@@H](N)Cc1ccc(O)cc1)C(=O)N[C@@H](CS)C(=O)N[C@@H](CS)C(=O)N[C@@H](CCCCN)C(N)=O` [VESCA-NH4] (H-YEWKRRCCK-NH2; N-terminus assumed), for which the MIC in data set [4] (KCTC 6317) is above 100 µg/mL; in data set [5] (KCTC 3314) it was above 100 µg/mL; in data set [6] (KCTC 17712), 100 µg/mL (≈ 78.7 µM); in data set [7] (KCTC 1621), above 100 µg/mL; in data set [8] (KCCM 41290), above 100 µg/mL.

`CC[C@H](C)[C@H](NC(=O)[C@H](Cc1ccccc1)NC(=O)[C@H](CCCCN)NC(=O)[C@H](CCSC)NC(=O)[C@H](CCCCN)NC(=O)[C@H](CCCNC(=N)N)NC(=O)[C@H](CCCNC(=N)N)NC(=O)[C@@H](NC(=O)[C@H](Cc1c[nH]c2ccccc12)NC(=O)[C@@H](N)CCC(=O)O)C(C)C)C(=O)N[C@@H](CC(N)=O)C(=O)N[C@@H](CO)C(=O)N[C@@H](CC(C)C)C(=O)N[C@@H](Cc1ccc(O)cc1)C(=O)N[C@@H](CO)C(=O)N[C@@H](Cc1c[nH]c2ccccc12)C(N)=O` [VESCA-OH3] (H-EWVRRKMKFINSLYSW-NH2; N-terminus assumed): the MIC in data set [4] (KCTC 6317) is 80 µg/mL (≈ 37.3 µM); in data set [5] (KCTC 3314), above 100 µg/mL; in data set [6] (KCTC 17712), 100 µg/mL (≈ 46.7 µM); in data set [7] (KCTC 1621), 5 µg/mL (≈ 2.33 µM); in data set [8] (setting [13]), 40 µg/mL (≈ 18.7 µM). For the same molecule, in data set [7] (Staphylococcus aureus, text of b72), the antimicrobial activity (MIC) came out at 5 µg/mL.
